Results on 16 compounds are retold here after ChEMBL document CHEMBL1240375, “Identification of a plasmid-borne resistance gene cluster comprising the resistance genes erm(T), dfrK, and tet(L) in a porcine methicillin-resistant Staphylococcus aureus ST398 strain” (2010).

The test system of assay [1] is Staphylococcus aureus. Kind of assay: Antimicrobial activity against Staphylococcus aureus RN4220 by broth microdilution method. It counts as functional. (In general: Dilution methods test growth across graded concentrations, often in twofold steps.)
The subject of assay [2] is Staphylococcus aureus. The experiment in a line: Antimicrobial activity against Staphylococcus aureus RN4220 transformant carrying plasmid pKKS25 and expressing erm(T), dfrK and tet(L) genes by broth microdilution method. The class given is functional.
The subject of assay [3] is Staphylococcus aureus. The experiment in a line: Antimicrobial activity against Staphylococcus aureus 25 transformant carrying plasmid pKKS25 and expressing erm(T), dfrKtet(L), tet(K), tet(M), mecA and blaZ genes by broth microdilution method.

Values after ≈ are worked out from the molar mass of the structure shown.

By MIC is commonly meant the lowest concentration that inhibits growth of the organism. A low value points to inhibition by little substance. With `CC1(C)S[C@@H]2[C@H](NC(=O)[C@H](N)c3ccccc3)C(=O)N2[C@H]1C(=O)O` [AMPICILLIN], the MIC with Staphylococcus aureus [1] and in the assay on Staphylococcus aureus [2] was 0.06 µg/mL (≈ 0.172 µM) each time.

Turning to `CN[C@@H]1[C@@H](O[C@H]2O[C@H](CO)[C@@H](N)[C@H](O)[C@H]2O)OC2C[C@@H](N)[C@@H](O[C@H]3[C@H](O)[C@@H](O)[C@H](N)C[C@@H]3N)OC2[C@@H]1O` (stereo not given in full) [APRAMYCIN], the values for the minimal inhibitory concentration (MIC) in the assay on Staphylococcus aureus [1], in the assay with Staphylococcus aureus [2] and against Staphylococcus aureus [3] were 1 µg/mL (≈ 1.85 µM), 1 µg/mL (≈ 1.85 µM) and 4 µg/mL (≈ 7.41 µM), respectively.

In the case of `O=C(N[C@H](CO)[C@H](O)c1ccc([N+](=O)[O-])cc1)C(Cl)Cl` [CHLORAMPHENICOL], the minimum inhibitory concentration (MIC) in the assay with Staphylococcus aureus [1] was found to be 4 µg/mL (≈ 12.4 µM); against Staphylococcus aureus [2], 4 µg/mL (≈ 12.4 µM); against Staphylococcus aureus [3], 8 µg/mL (≈ 24.8 µM).

For `CCC[C@@H]1C[C@@H](C(=O)N[C@@H]([C@H]2O[C@H](SC)[C@H](O)[C@@H](O)[C@H]2O)[C@H](C)Cl)N(C)C1` [CLINDAMYCIN], the MIC is no more than 0.12 µg/mL against Staphylococcus aureus [1], no less than 64 µg/mL against Staphylococcus aureus [2] and no less than 64 µg/mL against Staphylococcus aureus [3].

In the case of `CCN1CCN(c2cc3c(cc2F)c(=O)c(C(=O)O)cn3C2CC2)CC1` [ENROFLOXACIN], the MIC with Staphylococcus aureus [1], in the assay with Staphylococcus aureus [2] and against Staphylococcus aureus [3] was 0.25 µg/mL (≈ 0.696 µM) in each case.

On to `CC[C@H]1OC(=O)[C@H](C)[C@@H](O[C@H]2C[C@@](C)(OC)[C@@H](O)[C@H](C)O2)[C@H](C)[C@@H](O[C@@H]2O[C@H](C)C[C@H](N(C)C)[C@H]2O)[C@](C)(O)C[C@@H](C)C(=O)[C@H](C)[C@@H](O)[C@]1(C)O` [ERYTHROMYCIN], for which the MIC against Staphylococcus aureus [1] was 0.25 µg/mL (≈ 0.341 µM); against Staphylococcus aureus [2], no less than 128 µg/mL; in the assay on Staphylococcus aureus [3] it was no less than 128 µg/mL.

Take `CC(=O)NC[C@H]1CN(c2ccc(N3CCOCC3)c(F)c2)C(=O)O1` [LINEZOLID]: the minimum inhibitory concentration (MIC) with Staphylococcus aureus [1], against Staphylococcus aureus [2] and against Staphylococcus aureus [3] was 0.5 µg/mL (≈ 1.48 µM) throughout.

With `Cc1onc(-c2ccccc2)c1C(=O)N[C@@H]1C(=O)N2[C@@H]1SC(C)(C)[C@@H]2C(=O)O` [OXACILLIN], the minimum inhibitory concentration (MIC) is 0.06 µg/mL (≈ 0.149 µM) in the assay on Staphylococcus aureus [1], 0.06 µg/mL (≈ 0.149 µM) against Staphylococcus aureus [2] and 8 µg/mL (≈ 19.9 µM) in the assay on Staphylococcus aureus [3].

Regarding `CC1(C)S[C@@H]2[C@H](NC(=O)Cc3ccccc3)C(=O)N2[C@H]1C(=O)O` [PENICILLIN G], the results for the minimum inhibitory concentration (MIC) against Staphylococcus aureus [1] and against Staphylococcus aureus [3] were no more than 0.03 µg/mL and 16 µg/mL (≈ 47.8 µM), respectively.

`CN[C@@H]1[C@H](O)[C@H](NC)[C@H]2O[C@@]3(O)C(=O)C[C@@H](C)O[C@H]3O[C@@H]2[C@H]1O` [SPECTINOMYCIN]: the MIC against Staphylococcus aureus [1], against Staphylococcus aureus [2] and with Staphylococcus aureus [3] was 64 µg/mL (≈ 193 µM) each time.

Regarding `CN(C)[C@@H]1C(O)=C(C(N)=O)C(=O)[C@@]2(O)C(O)=C3C(=O)c4c(O)cccc4[C@@](C)(O)[C@H]3C[C@@H]12` [TETRACYCLINE], the values for the minimum inhibitory concentration (MIC) with Staphylococcus aureus [1], against Staphylococcus aureus [2] and against Staphylococcus aureus [3] were 0.06 µg/mL (≈ 0.135 µM), 32 µg/mL (≈ 72 µM) and 128 µg/mL (≈ 288 µM), respectively.

As for `C=C[C@]1(C)C[C@@H](OC(=O)CSCCN(CC)CC)[C@]2(C)[C@H](C)CC[C@]3(CCC(=O)[C@H]32)[C@@H](C)[C@@H]1O` [TIAMULIN], the MIC against Staphylococcus aureus [1] was 0.12 µg/mL (≈ 0.243 µM); in the assay with Staphylococcus aureus [2], 0.12 µg/mL (≈ 0.243 µM); against Staphylococcus aureus [3], 0.5 µg/mL (≈ 1.01 µM).

With `COc1cc(Cc2cnc(N)nc2N)cc(OC)c1OC` [TRIMETHOPRIM], the results for the MIC in the assay on Staphylococcus aureus [1], in the assay with Staphylococcus aureus [2] and against Staphylococcus aureus [3] were 0.5 µg/mL (≈ 1.72 µM), no less than 128 µg/mL and no less than 128 µg/mL, respectively.

In the case of `CC[C@H]1OC(=O)C[C@@H](O)[C@H](C)[C@@H](O[C@@H]2O[C@H](C)[C@@H](O[C@H]3C[C@@](C)(O)[C@@H](O)[C@H](C)O3)[C@H](N(C)C)[C@H]2O)[C@@H](CC=O)C[C@@H](C)C(=O)/C=C/C(C)=C/[C@@H]1CO[C@@H]1O[C@H](C)[C@@H](O)[C@@H](OC)[C@H]1OC.O=C(O)C(O)C(O)C(=O)O` [TYLOCIN TARTARATE], the minimum inhibitory concentration (MIC) with Staphylococcus aureus [1] was 1 µg/mL; in the assay with Staphylococcus aureus [2], no less than 64 µg/mL; in the assay with Staphylococcus aureus [3], no less than 64 µg/mL.

As for `C=C[C@]1(C)C[C@@H](OC(=O)CSC(C)(C)CNC(=O)[C@H](N)C(C)C)[C@]2(C)[C@H](C)CC[C@]3(CCC(=O)[C@H]32)[C@@H](C)[C@@H]1O` [VALNEMULIN], the minimal inhibitory concentration (MIC) with Staphylococcus aureus [1], against Staphylococcus aureus [2] and against Staphylococcus aureus [3] was 0.03 µg/mL (≈ 0.0531 µM) in each case.

As to GENTAMICIN, the MIC in the assay on Staphylococcus aureus [1] and with Staphylococcus aureus [2] was 0.25 µg/mL each time.
